Measurements as given in PubChem BioAssay AID2060897 (Molecular Pharmacology Branch, DTP, NCI, 2025).

System: 966289-007-R4-J1-PDC complex spheroid viability
Experiment: Anticancer human tumor 966289-007-R4-J1-PDC patient-derived pancreatic adenocarcinoma cell line growth inhibition [RAS]
Settings: for IC50: curve of first compound; for viability, T/C: stronger effect = lower value
From the text: RAS pathway inhibitors in Combinations in Complex Spheroids
A high-throughput screen of multi-cell type tumor spheroids was designed to identify active combinations of RAS pathway inhibitors and targeted small molecules. Complex spheroids include a stromal component modeled by human endothelial cells (HUVEC) and fibroblasts modeled by human mesenchymal stem cells (MSCs). The concentration ranges selected for each drug and investigational agent were based upon clinically achievable concentrations if the clinical Cmax of the agent was known.
Compounds. The drugs and investigational agents: abemaciclib (NSC768073), cobimetinib (NSC768068), divarasib (GDC6063, NSC841802), docetaxel (NSC628503), GDC-1971 (RLY-1971, NSC841576), gemcitabine (NSC613327), inavolisib (NSC800729), ipatasertib (NSC767898), KB-0742 (NSC834161), MRTX-1133 (NSC836407), osimertinib (NSC779217), RMC-4630 (NSC839698), RMC-6236 (NSC851965), RMC-6291 (NSC852671), Ro-3306 (NSC812927), sapanisertib (NSC764658), SN-38 (NSC673596), staurosporine (NSC755774), SY5609 (NSC837396), and tovorafenib (DAY101, NSC766906), were obtained from the National Cancer Institute (NCI) Developmental Therapeutics Program Chemical Repository. The FDA-approved anticancer drug set is available from the NCI Developmental Therapeutics Program. […] The stock solutions were prepared in dimethyl sulfoxide (DMSO, Sigma-Aldrich, St. Louis, MO, cat. D2650) at 800-fold the tested concentration and stored at -70 degrees C prior to their use. All drugs and investigational agents were tested over a range starting from a high concentration at or near the clinical Cmax and decreasing in half-log increments. If the clinical Cmax for an agent had not been determined, the highest concentration tested was 10 microM.
Cell Culture. All cells were maintained in an incubator at 37 degrees C and 5% CO2 with 95% humidity. The PDC lines were cultured according to standard operating procedures established by the NCI PDMR. All PDCs were thawed and cultured in Matrigel-coated flasks prepared with a working solution of 1X Ham's F-12 nutrient mix, without supplementation (Invitrogen, Waltham, MA, cat. 11765054), 100 U/mL penicillin-streptomycin (Invitrogen, cat. 15140122), and 2.5% Matrigel (Corning Inc., Corning, NY, cat. 354248) for the first three passages. The 362531-283-R-J2-PDC and 782815-120-R-J1-PDC lines were cultured in 6C/Colon 1B media, which includes advanced DMEM/F-12 (Thermo Fisher Scientific, cat. 12634028), 10 mM HEPES (Thermo Fisher Scientific, cat. 15630080), 1X GlutaMAX supplement (Thermo Fisher Scientific, cat. 35050061), 0.1 mg/mL primocin (InvivoGen, San Diego, CA, cat. ant-pm-2), 10% defined fetal bovine serum, heat inactivated (HyClone Laboratories Inc., Logan, UT, cat. SH30070.03HI), 50% L-WRN conditioned media (ATCC, cat. CRL-3276), 1.25 mM N-Acetyl-L-cysteine (Sigma-Aldrich, cat. A9165), 10 mM nicotinamide (Sigma-Aldrich, cat. N0636), 1X B-27 supplement (Thermo Fisher Scientific, cat. 17504044), 1X N-2 supplement (Thermo Fisher Scientific, cat. 17502048), 50 ng/mL human EGF (Thermo Fisher Scientific, cat. PHG0311), and 10 microM Y-27632 dihydrochloride (Tocris Bioscience, cat. 1254). The K12877-001-R-J1-PDC line was cultured in 6I media, which includes all 6C/Colon 1B media plus 10 ng/mL human FGF-10 (PeproTech, cat. 100-26), 1 ng/mL human FGF-2 (PeproTech, cat. 100-18B), 1 µM prostaglandin E2 (Tocris Bioscience, cat. 2296), […] hydrocortisone (Sigma-Aldrich, cat. H4001), and […] bovine insulin (Sigma-Aldrich, cat. I6634). The K86415-001-R-J1-PDC line was cultured in 6D media, which includes all 6C/Colon 1B media components minus the L-WRN conditioned media. The 485176-168-R4-J1-PDC was cultured in PANC media, which includes all 6C/Colon 1B media plus 100 ng/mL human FGF-10 (PeproTech, cat. 100-26), 500 nM SB-431542 (Selleckchem, cat. S1067), and 10 nM gastrin (Tocris Bioscience, cat. 3006). […]

[1] = second compound 0.0316 µM, first compound 0.00316 µM
[2] = second compound 0.0316 µM, first compound 0.01 µM
[3] = second compound 0.0316 µM, first compound 0.0316 µM
[4] = second compound 0.0316 µM, first compound 0.1 µM
[5] = second compound 0.0316 µM, first compound 0.316 µM
[6] = second compound 0.0316 µM, first compound 1 µM
[7] = second compound 0.1 µM, first compound 0.00316 µM
[8] = second compound 0.1 µM, first compound 0.01 µM
[9] = second compound 0.1 µM, first compound 0.0316 µM
[10] = second compound 0.1 µM, first compound 0.1 µM
[11] = second compound 0.1 µM, first compound 0.316 µM
[12] = second compound 0.1 µM, first compound 1 µM
[13] = second compound 0.316 µM, first compound 0.00316 µM
[14] = second compound 0.316 µM, first compound 0.01 µM
[15] = second compound 0.316 µM, first compound 0.0316 µM
[16] = second compound 0.316 µM, first compound 0.1 µM
[17] = second compound 0.316 µM, first compound 0.316 µM
[18] = second compound 0.316 µM, first compound 1 µM
[19] = second compound 1 µM, first compound 0.00316 µM
[20] = second compound 1 µM, first compound 0.01 µM
[21] = second compound 1 µM, first compound 0.0316 µM
[22] = second compound 1 µM, first compound 0.1 µM
[23] = second compound 1 µM, first compound 0.316 µM
[24] = second compound 1 µM, first compound 1 µM
[25] = second compound 3.16 µM, first compound 0.00316 µM
[26] = second compound 3.16 µM, first compound 0.01 µM
[27] = second compound 3.16 µM, first compound 0.0316 µM
[28] = second compound 3.16 µM, first compound 0.1 µM
[29] = second compound 3.16 µM, first compound 0.316 µM
[30] = second compound 3.16 µM, first compound 1 µM
[31] = second compound 10 µM, first compound 0.00316 µM
[32] = second compound 10 µM, first compound 0.01 µM
[33] = second compound 10 µM, first compound 0.0316 µM
[34] = second compound 10 µM, first compound 0.1 µM
[35] = second compound 10 µM, first compound 0.316 µM
[36] = second compound 10 µM, first compound 1 µM
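Also: spheroids exposed to agents for one week before readout.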
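For viability, T/C in this document: percent viability relative to DMSO vehicle control wells as 100%.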

With C=CC(=O)Nc1cc(Nc2nccc(-c3cn(C)c4ccccc34)n2)c(OC)cc1N(C)CCN(C)C + C#Cc1c(F)ccc2cc(O)cc(-c3ncc4c(N5CC6CCC(C5)N6)nc(OCC56CCCN5CC(F)C6)nc4c3F)c12 as the compound, how does the IC50 (second compound 0.0316 µM) read?
Its IC50 is over 1000 nM.

And the IC50 (second compound 0.1 µM)?
The IC50 was over 1000 nM.

And the IC50 (second compound 0.316 µM)?
The IC50 was over 1000 nM.

What about the IC50 (second compound 1 µM) of the same compound?
Its IC50 is over 1000 nM.

And the IC50 (second compound 3.16 µM)?
Its IC50 is over 1000 nM.

And the IC50 (second compound 10 µM)?
The IC50 was over 1000 nM.

And the viability, T/C [1]?
The viability, T/C was 107%.

What about the viability, T/C [2] of the same compound?
The viability, T/C was 96%.

What about the viability, T/C [3] of the same compound?
The viability, T/C was 101%.

And the viability, T/C [4]?
The viability, T/C was 96.3%.

What about the viability, T/C [5] of the same compound?
Its viability, T/C is 94.2%.

What about the viability, T/C [6] of the same compound?
The viability, T/C was 94%.

What about the viability, T/C [7] of the same compound?
Its viability, T/C is 94.8%.

And the viability, T/C [8]?
The viability, T/C was 103%.

What about the viability, T/C [9] of the same compound?
Its viability, T/C is 99.8%.

And the viability, T/C [10]?
Its viability, T/C is 110%.

What about the viability, T/C [11] of the same compound?
Its viability, T/C is 90.4%.

What about the viability, T/C [12] of the same compound?
Its viability, T/C is 88.8%.

And the viability, T/C [13]?
The viability, T/C was 108%.

And the viability, T/C [14]?
The viability, T/C was 92.6%.

And the viability, T/C [15]?
Its viability, T/C is 114%.

And the viability, T/C [16]?
The viability, T/C was 105%.

What about the viability, T/C [17] of the same compound?
The viability, T/C was 105%.

What about the viability, T/C [18] of the same compound?
Its viability, T/C is 87.2%.

What about the viability, T/C [19] of the same compound?
The viability, T/C was 102%.

And the viability, T/C [20]?
Its viability, T/C is 93.1%.

What about the viability, T/C [21] of the same compound?
Its viability, T/C is 97%.

What about the viability, T/C [22] of the same compound?
Its viability, T/C is 106%.

What about the viability, T/C [23] of the same compound?
Its viability, T/C is 97.9%.

And the viability, T/C [24]?
Its viability, T/C is 82.8%.

And the viability, T/C [25]?
Its viability, T/C is 108%.

And the viability, T/C [26]?
The viability, T/C was 107%.

What about the viability, T/C [27] of the same compound?
Its viability, T/C is 129%.

And the viability, T/C [28]?
Its viability, T/C is 101%.

And the viability, T/C [29]?
The viability, T/C was 114%.

What about the viability, T/C [30] of the same compound?
The viability, T/C was 106%.

And the viability, T/C [31]?
Its viability, T/C is 97.5%.

What about the viability, T/C [32] of the same compound?
Its viability, T/C is 109%.

And the viability, T/C [33]?
The viability, T/C was 108%.

What about the viability, T/C [34] of the same compound?
Its viability, T/C is 118%.

What about the viability, T/C [35] of the same compound?
The viability, T/C was 91.3%.

What about the viability, T/C [36] of the same compound?
Its viability, T/C is 115%.

Which results are given for O=C(c1ccc(F)c(F)c1Nc1ccc(I)cc1F)N1CC(O)([C@@H]2CCCCN2)C1 + C#Cc1c(F)ccc2cc(O)cc(-c3ncc4c(N5CC6CCC(C5)N6)nc(OCC56CCCN5CC(F)C6)nc4c3F)c12?
IC50 (second compound 0.0316 µM): 397 nM; IC50 (second compound 0.1 µM): 376 nM; IC50 (second compound 0.316 µM): 395 nM; IC50 (second compound 1 µM): 409 nM; IC50 (second compound 3.16 µM): 404 nM; IC50 (second compound 10 µM): 522 nM; viability, T/C [1]: 87%; viability, T/C [2]: 68.4%; viability, T/C [3]: 78%; viability, T/C [4]: 66.3%; viability, T/C [5]: 55.5%; viability, T/C [6]: 31.8%; viability, T/C [7]: 96.2%; viability, T/C [8]: 73.7%; viability, T/C [9]: 61.7%; viability, T/C [10]: 66.3%; viability, T/C [11]: 64.5%; viability, T/C [12]: 33.3%; viability, T/C [13]: 76%; viability, T/C [14]: 70.3%; viability, T/C [15]: 73%; viability, T/C [16]: 60.8%; viability, T/C [17]: 56.4%; viability, T/C [18]: 33.3%; viability, T/C [19]: 74.5%; viability, T/C [20]: 74.4%; viability, T/C [21]: 65%; viability, T/C [22]: 65.2%; viability, T/C [23]: 56.6%; viability, T/C [24]: 32.8%; viability, T/C [25]: 78.6%; viability, T/C [26]: 72.9%; viability, T/C [27]: 70.7%; viability, T/C [28]: 64.4%; viability, T/C [29]: 54.2%; viability, T/C [30]: 36.3%; viability, T/C [31]: 77.7%; viability, T/C [32]: 69.8%; viability, T/C [33]: 71.2%; viability, T/C [34]: 66%; viability, T/C [35]: 59.4%; viability, T/C [36]: 39.3%
